“Also recorded” adds a separate entry of the source.
These substances were tested on avian virus A/duck/Czechoslovakia/56, H4N6.
Format: binding, avian influenza A virus (H4N6)

Substance | Binding of avian influenza virus HRP conjugate to glycolipid on TLC plate
NeuAcα3Galβ4GlcNAcβ3Galβ4GlcβCer [S-3-PG] | binding; also recorded: bound
NeuAcα3Galβ3GalNAcβ4(NeuAcα8NeuAcα3)Galβ4GlcβCer [GT1b] | binding
sulfatide | probably unspecific interaction
NeuAcα3Galβ4GlcβCer [GM3] | not observed
NeuAcα3Galβ3GalNAcβ4(NeuAcα3)Galβ4GlcβCer [GD1a] | binding
